Each structure is given as a SMILES string.

The values below come from patent EP3255116A1, “COMPOSITIONS COMPRISING A FLUOROOLEFIN” (The Chemours Company FC, LLC, priority 2005, dated 2006).

The nature of series [1]: Kinematic viscosity of lactone compatibilizers. Type of series: physicochemical. Particulars: at 40°C. The procedure: Lactone compatibilizers generally have a kinematic viscosity of less than about 7 centistokes at 40°C. […] Lactone compatibilizers may be available commercially or prepared by methods as described in U. S. patent application 10/910,495 filed August 3, 2004, incorporated herein by reference.

Series [2] is described as follows: Flammability test ASTM E681-01, lower and upper flammability limit in air (Example 6). Particulars: 50 percent relative humidity; for LFL: lower flammability limit; for LFL / UFL: ASTM E681-01, 101 kPa (14.7 psia), 100 °C (212 °F); for UFL: upper flammability limit; for flammability: ASTM E681-01, 101 kPa, 100 °C. Type of series: physicochemical. The procedure:
Flammable compounds may be identified by testing under ASTM (American Society of Testing and Materials) E681-01, with an electronic ignition source. Such tests of flammability were conducted on HFC-1234yf, HFC-1225ye and a mixture of the present disclosure at 101 (kPa (14.7 psia), 100 °C (212 °F), and 50 percent relative humidity, at various concentrations in air in order to determine the lower flammability limit (LFL) and upper flammability limit (UFL). The results are given in […]. TABLE 14

The compound `CCCCCC[C@H]1C[C@@H](C)OC1=O` (relative stereo) [cis-(3-hexyl-5-methyl)dihydrofuran-2-one] returned a kinematic viscosity in series [1] of 4.5 centistokes.

For `FC=C(F)C(F)(F)F` [HFC-1225ye (100wt%)], in series [2], the LFL result is “Non-flammable” and the UFL entry is on record as “Non-flammable”.

Consider `FC=C(F)C(F)(F)F` [HFC-1225ye, 1,2,3,3,3-pentafluoropropene], for which, in series [2], the flammability entry is “reduces the flammability”.

In series [2], `C=C(F)C(F)(F)F` [HFC-1234yf (100 wt%)] had an LFL of 5.0 vol % in air and a UFL of 14.5 vol % in air.

`C=C(F)C(F)(F)F` [HFC-1234yf, 2,3,3;3-tetrafluoropropene]: the flammability result in series [2] is given as “flammable”.
